One data set concerns HepG2 cell. The data set is described as follows: HepG2 cell cytotoxicity, ATP decrease. The data set is classed as cell-based. How it is done: Compounds of the invention were evaluated for cytotoxicity using standard methods known in the art. Specifically, cytotoxicity was evaluated using HEPG2 cells and monitoring ATP decrease and determining the EC50 value. […]
For data set [1] the following is noted: ionized species; values from literature; cited from earlier work.
The target in data set [2] is T1, bovine serum albumin (Bos taurus, UniProt P02769).
T1 construct: dissolved at a concentration of 100 μM in 5% bovine serum albumin-saline solution (pH 7.2); from tissue; host or cells: bovine serum (only from the protein's name)
T1 sequence (P02769 25-607): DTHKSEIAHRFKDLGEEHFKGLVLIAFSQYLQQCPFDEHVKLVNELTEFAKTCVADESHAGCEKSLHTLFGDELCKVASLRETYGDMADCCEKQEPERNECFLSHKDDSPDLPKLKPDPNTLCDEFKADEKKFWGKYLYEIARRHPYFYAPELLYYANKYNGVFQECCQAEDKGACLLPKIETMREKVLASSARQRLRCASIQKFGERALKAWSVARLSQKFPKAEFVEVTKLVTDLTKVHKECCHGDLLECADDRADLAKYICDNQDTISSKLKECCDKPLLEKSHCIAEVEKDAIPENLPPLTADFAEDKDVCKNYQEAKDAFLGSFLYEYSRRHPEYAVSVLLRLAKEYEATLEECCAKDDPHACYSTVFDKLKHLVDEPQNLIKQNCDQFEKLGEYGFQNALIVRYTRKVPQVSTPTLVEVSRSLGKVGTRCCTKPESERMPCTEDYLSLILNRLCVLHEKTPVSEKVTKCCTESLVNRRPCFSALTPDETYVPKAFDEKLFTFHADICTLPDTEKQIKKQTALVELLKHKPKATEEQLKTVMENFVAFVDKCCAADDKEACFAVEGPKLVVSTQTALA
The note with it: values from literature; cited from earlier work.

The conditions of data set [3]: […] NaCl water solution; values from literature; cited from earlier work.
The nature of a further data set: Water solubility. The data set is classed as physicochemical. As to conditions: BA as protonated species, 0.1 M HCl, pH 1; hs = highly soluble, not evaluated. How it is done: Solid compound (BA) was suspended in 5 ml of 0.1 M HCl. […] The flow rate was 150 μl/min. The mass spectrometry acquisition was performed in the multiple reaction monitoring mode using the ESI source in negative ionization. Water solubility was expressed as μmol/liter.
The water solubility was measured for the insoluble protonated species of carboxylated bile acids at a pH 1.

The nature of data set [4]: Critical micellar concentration by surface tension (maximum bubble-pressure method). The data set is classed as physicochemical. The note with it: […] NaCl water solution. How it is done:
The critical micellar concentration (CMC) was determined by surface tension (ST) measurements using a maximum bubble-pressure method which give surface tension values slightly affected by potential impurities like static methods are. The tensiometer was a […] Research Corp., Milwaukee, Wis.) equipped with two glass probes of 0.5 and 4.0 mm diameters connected to a source of nitrogen. The bubble frequency was 1 bubble/second in distilled water at 26° C. (P=2.7 atm) and the calibration was made with double-distilled water and methanol. The surface tension of BA sodium salts solutions in NaCl 0.15 M was measured at various concentrations inside the 0.13-50 mM range. The surface tension values were plotted against the logarithm of the bile salt concentration; the regression lines corresponding to the two parts of the curve (monomeric and micellar phases) were calculated using the method of least squares, and the intersection of the lines was taken as the CMC value. From the ST vs concentration curves the value of the surface tension at the CMC (equilibrium between monomers and multimers species) was also calculated giving information about the detergency power which is related to the size of the micelles with associate surface tension lowering capacity. The CMC was evaluated by surface tension measurements in non equilibrium conditions i.e. in conditions that impurities slightly affect the surface tension results (FIG. 1).

The target of the next data set is T2, CAR (Homo sapiens, UniProt Q14994).
T2 sequence (Q14994 1-352): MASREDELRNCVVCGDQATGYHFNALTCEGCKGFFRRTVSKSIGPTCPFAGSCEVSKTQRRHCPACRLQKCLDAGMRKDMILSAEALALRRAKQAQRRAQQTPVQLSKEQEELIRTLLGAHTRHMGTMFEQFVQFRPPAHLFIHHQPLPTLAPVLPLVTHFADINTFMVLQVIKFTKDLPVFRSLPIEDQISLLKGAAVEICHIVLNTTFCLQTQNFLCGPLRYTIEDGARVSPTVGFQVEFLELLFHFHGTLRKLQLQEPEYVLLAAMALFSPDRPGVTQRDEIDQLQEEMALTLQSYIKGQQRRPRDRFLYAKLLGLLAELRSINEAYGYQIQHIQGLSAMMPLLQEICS
Put plainly: CAR coactivator recruitment (Lanthascreen). The data set is classed as biochemical. How it is done: (§1) The selectivity of compounds of the invention was evaluated using assay methods known in the art. Specifically, the following assay methods were used: • FXR and LXR: Coactivator Recruitment (alphascreen); • TGR5: cAMP level on human intestinal cell line (NCI-H716); • PXR: Ligands Competition assay (Binding Assay) • CAR: Coactivator Recruitment (Lanthascreen)
Background: TR-FRET usually uses a lanthanide donor and a delayed reading to cut background.

Another data set has as its target T3, VDR (Homo sapiens, UniProt P11473).
T3 sequence (P11473 1-427): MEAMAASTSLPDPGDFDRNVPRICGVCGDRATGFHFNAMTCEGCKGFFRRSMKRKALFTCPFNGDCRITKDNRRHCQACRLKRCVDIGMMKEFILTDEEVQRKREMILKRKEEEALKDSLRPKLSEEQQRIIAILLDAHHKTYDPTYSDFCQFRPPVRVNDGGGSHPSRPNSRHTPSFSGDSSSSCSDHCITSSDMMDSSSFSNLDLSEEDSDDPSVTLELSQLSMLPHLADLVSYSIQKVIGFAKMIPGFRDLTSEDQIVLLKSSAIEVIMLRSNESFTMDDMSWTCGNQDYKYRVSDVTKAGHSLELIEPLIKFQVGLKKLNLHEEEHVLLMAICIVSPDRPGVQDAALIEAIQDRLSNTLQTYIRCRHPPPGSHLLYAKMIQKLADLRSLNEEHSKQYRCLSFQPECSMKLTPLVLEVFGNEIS
Put plainly: NR selectivity assay VDR. The note with it: unnamed ref standard 0.005 μM.

Data set [5] has as its target T1, bovine serum albumin. The data set is described as follows: Albumin binding by equilibrium dialysis. As to conditions: 100 μM BA in 5% bovine serum albumin-saline, pH 7.2. The data set is classed as in vitro ADME. How it is done: The extent of albumin binding was evaluated by equilibrium dialysis at a fixed BA-albumin ratio. BA was dissolved at a concentration of 100 μM in 5% bovine serum albumin-saline solution (pH 7.2) and left to stand for 24 h at 25° C. Two milliliters of this solution was dialyzed in cellulose sacs having a molecular weight cut-off of 12-14,000 against 25 ml of saline solution. The system was equilibrated by mechanical gently shaking for 72 h at 25° C. BA concentrations of the dialyzed solution (corresponding to the free unbound fraction) and of the starting solution were determined with HPLC-ESI-MS/MS in the same conditions of the previous analysis. The percent of albumin binding was calculate from the initial BA concentration and from the unbound concentration in the dialyzed fraction. All these compounds never less present an albumin binding compatible with a relatively fast hepatic uptake, similarly to natural occurring BA. Accordingly different kinetics (slower) of the liver uptake is expected.
A general note: Equilibrium dialysis compares concentrations on both sides of a semipermeable membrane.

In the next data set the target is T4, PPARδ (Homo sapiens, UniProt Q03181).
T4 sequence (Q03181 1-441): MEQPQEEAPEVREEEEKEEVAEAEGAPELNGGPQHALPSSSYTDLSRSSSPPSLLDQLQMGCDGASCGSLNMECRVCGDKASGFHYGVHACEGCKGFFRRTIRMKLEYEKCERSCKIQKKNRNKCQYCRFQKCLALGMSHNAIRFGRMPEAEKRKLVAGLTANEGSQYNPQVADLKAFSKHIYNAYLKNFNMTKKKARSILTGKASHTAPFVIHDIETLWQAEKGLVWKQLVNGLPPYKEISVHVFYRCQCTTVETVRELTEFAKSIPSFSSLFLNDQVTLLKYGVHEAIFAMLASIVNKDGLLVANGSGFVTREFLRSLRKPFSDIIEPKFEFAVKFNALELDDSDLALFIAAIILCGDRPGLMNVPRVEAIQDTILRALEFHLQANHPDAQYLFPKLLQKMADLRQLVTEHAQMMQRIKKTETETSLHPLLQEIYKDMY
The data set is described as follows: NR selectivity assay PPARδ. As to conditions: unnamed ref standard 0.004 μM.

Another data set deals with T5, LXRα (Homo sapiens, UniProt Q13133).
T5 sequence (Q13133 1-447): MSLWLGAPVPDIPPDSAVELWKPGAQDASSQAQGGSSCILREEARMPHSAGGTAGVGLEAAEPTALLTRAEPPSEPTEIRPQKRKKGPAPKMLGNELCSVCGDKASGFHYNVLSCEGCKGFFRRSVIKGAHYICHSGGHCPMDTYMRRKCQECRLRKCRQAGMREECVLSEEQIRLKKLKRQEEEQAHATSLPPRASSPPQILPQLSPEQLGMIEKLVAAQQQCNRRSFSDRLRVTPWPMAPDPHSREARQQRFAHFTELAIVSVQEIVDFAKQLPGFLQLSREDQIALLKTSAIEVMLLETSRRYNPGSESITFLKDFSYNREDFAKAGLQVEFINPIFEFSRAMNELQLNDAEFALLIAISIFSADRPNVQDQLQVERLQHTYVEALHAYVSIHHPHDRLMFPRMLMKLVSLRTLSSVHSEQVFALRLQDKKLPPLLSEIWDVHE
The data set is described as follows: LXR coactivator recruitment (alphascreen). The data set is classed as biochemical. The note with it: ref standard T0901317. How it is done: as §1
In general terms: Alpha assays give light when donor and acceptor beads are brought close together.

Data set [6] in a line: 1-Octanol/water partition coefficient (shake-flask). The data set is classed as physicochemical. As to conditions: ionized species, pH 8. How it is done: Since the sulphate and sulphonated analogues are always ionised at all pH values the octanol/water partition coefficient was measured for all molecules in ionized form. 1-Octanol/water partition coefficient (log P) was evaluated using a conventional shake-flask procedure. […] The aqueous buffer was previously pre-saturated with 1-octanol, 5 ml of 1-octanol pre-saturated with water was then added and the samples were left to equilibrate for 2 weeks under continuous stirring at room temperature After centrifugation the two phases were carefully separated. BA concentration in the water phase was measured with HPLC-ESI ? MS/MS using C18 column (150 mm×2 mm i.d., 4 μm) and, as mobile phases, water containing 15 mM acetic acid pH 5 and acetonitrile. The flow rate was 150 μal/min and the column was maintained at 45° C. The mass spectrometry acquisition was performed in the multiple reaction monitoring mode using the ESI source in negative ionization.

Another data set concerns Intestinal Bacteria. The data set is described as follows: In vitro metabolic stability in human stool culture. As to conditions: human stool cultures.
A short description of data set [7]: Previous study of oleanolic acid (OA) in animals. Format: in vivo. How it is done: Therefore, OA is administered at the dose of 50 mg/kg/d in this study.
Setting [8] is: coactivator recruitment (Lanthascreen), ref standard CITCO.

Read-outs that look alike come from different tables or passages of the source. Marks after values point to notes of the source that are not given here. A value given as a limit tells only on which side of the number the result lay.

This is an account of results in US8796249B2, “TGR5 modulators and methods of use thereof” (Intercept Pharmaceuticals, Inc., priority 2008, dated 2014).

Method for Intestinal Bacteria: Homogenized fresh human stools (500 mg) were transferred into sterile vials to which 5 mL of sterilized chopped meat-glucose medium (Scott Lab., Fiskville, R.I.) was added. BA were then added at a final concentration of 0.05 mM. Vials were incubated at 37° C.; then, at 0, 1, 2, 4, 8 and 24 h after the addition of the BA, the reaction was stopped with 150 μL of 30% KOH. The samples were centrifuged at 3500 rpm for 10 min; from the supernatant the BA were isolated by C-18 solid-phase extraction and analyzed by TLC and HPLC-ES-MS/MS.
Thin-layer chromatography (TLC), utilizing silica gel 0.25 mm thickness plates (Merck, Darmstat, Germany), was employed as the first screening test. The solvent system used for the separation of conjugated BA was composed of propionic acid/isoamyl acetate/water/N-propanol (3:4:1:2, v/v/v/v; solvent I), and that of the unconjugated BA was acetic acid/carbon tetrachloride/isopropyl ether/isoamyl acetate/water/N-propanol/benzene (1:4:6:8:2:2, v/v/v/v/v/v; solvent II).

Consider `CN[C@@H]1C[C@H]2O[C@@](C)([C@@H]1OC)n1c3ccccc3c3c4c(c5c6ccccc6n2c5c31)C(=O)NC4` [Staurosporine, reference compound], for which a half-maximal response in the data set with HepG2 cell (human) (EC50) required 15 µM.
Take `C[C@H](CCC(=O)NCCS(=O)(=O)O)[C@H]1CC[C@H]2[C@@H]3[C@H](O)C[C@@H]4C[C@H](O)CC[C@]4(C)[C@H]3CC[C@]12C` [TCDCA]: in data set [1], the “LogPA- (1-octanol-water partition coefficient)” value was 0.9*. Moreover, the “Albumin Binding” value on bovine serum albumin [2] was 70* %. In addition, in data set [3], the “CMC […] Na+” value is 3.0* mM. Also, the “Ws (water solubility)” value in the data set “Water solubility” is “hs”.
In the case of `C[C@H](CCC(=O)O)[C@H]1CC[C@H]2[C@@H]3[C@@H](O)C[C@@H]4C[C@H](O)CC[C@]4(C)[C@H]3CC[C@]12C` [UDCA, reference compound], in data set [4], the “CMC […] Na+” value is 6.0 mM and the “STCMC (surface tension at CMC)” value was 50.5 Dyne/cm. Also, on CAR (setting [8]), the EC50 (commonly the concentration at which the effect is half-maximal) is over 250 µM. Moreover, at VDR, the “VDR EC50” value is given as “No”. For the same molecule, the EC50 in the data set with HepG2 cell was over 1000 µM. The “Albumin Binding” value on bovine serum albumin [5] is on record as 94%. The “PPARδ EC50” value at PPARδ is “No”. For the same molecule, on LXRα, the “LXRα EC50” value is “No”. Moreover, in the data set “Water solubility”, the “Ws (water solubility)” value was 7.5 µM. In addition, the “LogPA- (1-octanol-water partition coefficient)” value in data set [6] was found to be 2.2.
Consider `C[C@H](CCC(=O)O)[C@H]1CC[C@H]2[C@@H]3CC[C@@H]4C[C@H](O)CC[C@]4(C)[C@H]3CC[C@]12C` [LCA, lithocholic acid], for which, on CAR (setting [8]), the “CAR EC50” value is recorded as “No”. Besides, the “PPARδ EC50” value on PPARδ is listed as “No”. Also, the “LXRα EC50” value on LXRα is “No”.
As for `C[C@H](CCC(=O)O)[C@H]1CC[C@H]2[C@@H]3[C@H](O)C[C@@H]4C[C@H](O)CC[C@]4(C)[C@H]3CC[C@]12C` [CDCA, chenodeoxycholic acid], in data set [4], the “CMC […] Na+” value is on record as 3.2 mM and the “STCMC (surface tension at CMC)” value is reported as 45.5 Dyne/cm. On CAR, this molecule returned an EC50 of over 250 µM. Also, the “VDR EC50” value at VDR is on record as “No”. Besides, the “Albumin Binding” value on bovine serum albumin [5] stood at 93%. Further, the “PPARδ EC50” value at PPARδ was “No”. Moreover, the “LXRα EC50” value at LXRα was “No”. Also, the “LogPA- (1-octanol-water partition coefficient)” value in [6] came out at 2.2. In the data set with Intestinal Bacteria, the half-life time entry is “almost one hour”.
On to `CC1(C)CC[C@]2(C(=O)O)CC[C@]3(C)C(=CC[C@@H]4[C@@]5(C)CC[C@H](O)C(C)(C)[C@@H]5CC[C@]43C)[C@@H]2C1` [OA, oleanolic acid], for which the food aversion entry in data set [7] is “did not cause food aversion”. In [7] (dose of 100 mg/kg/day), the toxicity result is given as “some signs of toxicity”. Moreover, in data set [7] (lower dose than 100 mg/kg/day), the tolerability entry is given as “well tolerated”.
Turning to `C[C@H](CCC(=O)NCCS(=O)(=O)O)[C@H]1CC[C@H]2[C@@H]3[C@@H](O)C[C@@H]4C[C@H](O)CC[C@]4(C)[C@H]3CC[C@]12C` [TUDCA], in data set [1], the “LogPA- (1-octanol-water partition coefficient)” value is recorded as 1.1*. In addition, the “Albumin Binding” value at bovine serum albumin [2] is 67* %. In data set [3], the “CMC […] Na+” value is 2.2* mM. Also, the “Ws (water solubility)” value in “Water solubility” is “hs”.
